Reference: publication PMC4186475 (Influenza and Other Respiratory Viruses, 2013)

Legend:
[1] = test system: neuraminidase (NA) of influenza B viruses; assay type: biochemical, influenza B virus
[2] = test system: neuraminidase (NA) of influenza A (H3N2) viruses; assay type: biochemical, influenza A (H3N2) virus

Compound	Fold change in IC50 of test viruses, Approach #3 [1]	fold change in IC50 of outliers [1]	Fold change in IC50 of test viruses, Approach #1 [2]	Fold change in IC50 of test viruses, Approach #2 [2]	Fold change in IC50 of test viruses, Approach #3 [2]	fold change in IC50 of outliers [2]
CCOC(=O)C1=C[C@@H](OC(CC)CC)[C@H](NC(C)=O)[C@@H](N)C1 [Oseltamivir, Oseltamivir (carboxylate)]	6 (1) fold	53·02 (6) fold	–	–	–	–
CC(=O)N[C@H]1[C@H]([C@H](O)[C@H](O)CO)OC(C(=O)O)=C[C@@H]1N=C(N)N [Zanamivir, zanamivir]	5 (1) fold	5·11 (5) fold	132 (1) fold	132 (1) fold	91 (1) fold	23·75 (91) fold
